Assay results: patent US20180201592A1, “2-AMINO-1,3,4-THIADIAZINE AND 2-AMINO-1,3,4-OXADIAZINE BASED ANTIFUNGAL AGENTS” (F2G Limited, priority 2015, published 2018)
Converted amounts (≈) assume the structure as drawn. Like-named read-outs stand apart in the source and are kept apart here.

Key:
[1] = test system: A. fumigatus 210; assay: Minimum inhibitory concentration, RPMI medium; type: cell-based; conditions: banded MIC grade
Method: (§1) Between 1 and 5 mgs of compound were accurately weighed out into a sterile Eppendorf tube. The compound was dissolved in DMSO to give a solution containing 5 mg/mL. Tubes were stored at −20° C. until required.
(§2) On the day of testing thawed solutions were vortex mixed to ensure homogeneity. 30 μL of solution was removed and added to 570 μL of sterile water in a separate sterile Eppendorf. The thoroughly mixed solution was used to prepare a series of doubling dilutions in water, in a deep well plate. Thirteen replicate plates were prepared using a Minitrak by aspirating 20 μL from each well into eleven clear polystyrene 96 well plates.
(§3) Assays were also performed in RPMI medium (Roswell Park Memorial Media 1640). To perform MIC tests in this medium, dilutions of compounds are prepared in microtitre plates as described above. Fungal strains to be tested are grown and harvested in an identical manner to that described above, and each organism suspension was diluted in RPMI medium, typically containing 2% glucose and 0.135 M MOPS buffer (pH 7.0) to 0.5-2×10^4cfu/mL, rather than in YAG medium. 80 μL of an organism suspension was added to each well of the plate containing drug dilutions.
(§4) This produced MIC plates with a drug range 50-0.05 mg/L and organism inocula of 1-2×10^4 cfu/mL. All plates were incubated for 24-48 hrs at 35° C. Growth was assessed by monitoring the optical density at 485 nm for each well. The MIC of a compound is the lowest drug concentration that inhibits growth of an organism by >80% compared with a drug free control. The following organisms were tested: C. albicans, C. parapsilosis, C. tropicalis, C. glabrata, C. krusei, A. niger, A. fumigatus, A. terreus, A. flavus, A. terreus 49, and A. fumigatus 210.

[2] = test system: A. fumigatus; assay: Minimum inhibitory concentration, RPMI medium; type: cell-based; conditions: banded MIC grade
Method: as §1, §2, §3, §4

[3] = test system: A. terreus 49; assay: Minimum inhibitory concentration, RPMI medium; type: cell-based; conditions: banded MIC grade
Method in brief: (§5)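 Growth inhibition was judged from optical density at 485 nm per well after 24-48 hrs at 35° C. Test compound came from a 5 mg/mL DMSO stock, serially doubled in water before testing in RPMI 1640.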

[4] = test system: C. krusei; assay: Minimum inhibitory concentration, RPMI medium; type: cell-based; conditions: banded MIC grade
Method in brief: as §5

[5] = test system: A. terreus; assay: Minimum inhibitory concentration, RPMI medium; type: cell-based; conditions: banded MIC grade
Method in brief: as §5

[6] = test system: C. tropicalis; assay: Minimum inhibitory concentration, RPMI medium; type: cell-based; conditions: banded MIC grade; for MIC: Candida tropicalis, RPMI media
Method in brief: as §5

[7] = test system: C. glabrata; assay: Minimum inhibitory concentration, RPMI medium; type: cell-based; conditions: banded MIC grade
Method in brief: as §5

[8] = test system: A. flavus; assay: Minimum inhibitory concentration, RPMI medium; type: cell-based; conditions: banded MIC grade
Method in brief: as §5

[9] = test system: C. parapsilosis; assay: Minimum inhibitory concentration, RPMI medium; type: cell-based; conditions: banded MIC grade; for MIC: Lodderomyces parapsilosis, RPMI media
Method in brief: as §5

[10] = test system: A. niger; assay: Minimum inhibitory concentration, RPMI medium; type: cell-based; conditions: banded MIC grade
Method in brief: as §5

[11] = test system: C. albicans; assay: Minimum inhibitory concentration, RPMI medium; type: cell-based; conditions: banded MIC grade; for MIC: Candida albicans, RPMI media
Method in brief: as §5

[12] = test system: A. fumigatus 210; assay: Minimum inhibitory concentration, YAG medium; type: cell-based, Aspergillus fumigatus; conditions: banded MIC grade; for MIC: Aspergillus fumigatus, 210, YAG media
Method in brief: (§6)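 Broth microdilution in YAG medium (1% glucose, 1% ammonium chloride, 0.5% yeast extract) with spore inocula of 1-2×10^4 cfu/mL and doubling dilutions typically spanning 50-0.05 mg/L. Plates were incubated 24 hrs at 35° C and read by OD 485 nm. MIC is the lowest concentration giving >70% growth inhibition versus drug-free control, in mg/L.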

[13] = test system: A. terreus 49; assay: Minimum inhibitory concentration, YAG medium; type: cell-based, Aspergillus terreus; conditions: banded MIC grade; for MIC: Aspergillus terreus, 49, YAG media
Method in brief: (§7)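 Growth inhibition was read as absorbance at 485 nm after spores of Aspergillus spp. were exposed for 24 hrs at 35° C to doubling dilutions of the compound. Dilutions were made in water starting from a 5 mg/mL DMSO stock, and MIC values were expressed in mg/L.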

[14] = test system: Aspergillus fumigatus; assay: Minimum inhibitory concentration, YAG medium; type: cell-based; conditions: banded MIC grade; for MIC: Aspergillus fumigatus, YAG media
Method in brief: as §6

[15] = test system: Aspergillus terreus; assay: Minimum inhibitory concentration, YAG medium; type: cell-based; conditions: banded MIC grade; for MIC: Aspergillus terreus, YAG media
Method in brief: as §7

[16] = test system: Aspergillus niger; assay: Minimum inhibitory concentration, YAG medium; type: cell-based; conditions: banded MIC grade; for MIC: Aspergillus niger, YAG media
Method in brief: as §7

[17] = test system: Aspergillus flavus; assay: Minimum inhibitory concentration, YAG medium; type: cell-based; conditions: banded MIC grade; for MIC: Aspergillus flavus, YAG media
Method in brief: as §7

[18] = read-out: MIC grade C. PARAPSILOSIS
[19] = read-out: MIC grade, C. PARAPSILOSIS, RPMI media
[20] = read-out: MIC grade C. ALBICANS
[21] = read-out: MIC grade, C. ALBICANS, RPMI media

NC1=NN=C(CCOCCOc2ccccc2)CS1
MIC grade, A. FUMIGATUS 210, RPMI media [1]: 3 (3: 1-5 mg/L)
MIC grade, A. FUMIGATUS, RPMI media [2]: 3 (3: 1-5 mg/L)
MIC grade, A. TERREUS 49, RPMI media [3]: 4 (4: <1 mg/L)
MIC grade, C. KRUSEI, RPMI media [4]: 4 (4: <1 mg/L)
MIC grade, A. TERREUS, RPMI media [5]: 4 (4: <1 mg/L)
MIC grade, C. TROPICALIS, RPMI media [6]: 3 (3: 1-5 mg/L)
MIC grade, C. GLABRATA, RPMI media [7]: 2 (2: 5-20 mg/L)
MIC grade, A. FLAVUS, RPMI media [8]: 3 (3: 1-5 mg/L)
MIC grade, C. PARAPSILOSIS, RPMI media [9]: 4 (4: <1 mg/L)
MIC grade, A. NIGER, RPMI media [10]: 3 (3: 1-5 mg/L)
MIC grade, C. ALBICANS, RPMI media [11]: 3 (3: 1-5 mg/L)
MIC grade, A. FUMIGATUS 210, YAG media [12]: 4 (4: <0.2 mg/L)
MIC grade, A. TERREUS 49, YAG media [13]: 4 (4: <0.2 mg/L)
MIC grade, A. FUMIGATUS, YAG media [14]: 4 (4: <0.2 mg/L)
MIC grade, A. TERREUS, YAG media [15]: 4 (4: <0.2 mg/L)
MIC grade, A. NIGER, YAG media [16]: 4 (4: <0.2 mg/L)
MIC grade, A. FLAVUS, YAG media [17]: 4 (4: <0.2 mg/L)

NC1=NN=C(CCCCOCc2ccccc2CCc2ccccc2)CS1
MIC grade, A. FUMIGATUS 210, RPMI media [1]: 1 (1: ≥20 mg/L)
MIC grade, A. FUMIGATUS, RPMI media [2]: 1 (1: ≥20 mg/L)
MIC grade, A. TERREUS 49, RPMI media [3]: 2 (2: 5-20 mg/L)
MIC grade, C. KRUSEI, RPMI media [4]: 2 (2: 5-20 mg/L)
MIC grade, A. TERREUS, RPMI media [5]: 2 (2: 5-20 mg/L)
MIC grade, C. TROPICALIS, RPMI media [6]: 2 (2: 5-20 mg/L)
MIC grade, C. GLABRATA, RPMI media [7]: 1 (1: ≥20 mg/L)
MIC grade, A. FLAVUS, RPMI media [8]: 1 (1: ≥20 mg/L)
MIC grade, C. PARAPSILOSIS, RPMI media [9]: 2 (2: 5-20 mg/L)
MIC grade, A. NIGER, RPMI media [10]: 1 (1: ≥20 mg/L)
MIC grade, C. ALBICANS, RPMI media [11]: 2 (2: 5-20 mg/L)
MIC grade, A. FUMIGATUS 210, YAG media [12]: 1 (1: ≥5 mg/L)
MIC grade, A. TERREUS 49, YAG media [13]: 1 (1: ≥5 mg/L)
MIC grade, A. FUMIGATUS, YAG media [14]: 1 (1: ≥5 mg/L)
MIC grade, A. TERREUS, YAG media [15]: 2 (2: 1-5 mg/L)
MIC grade, A. NIGER, YAG media [16]: 1 (1: ≥5 mg/L)
MIC grade, A. FLAVUS, YAG media [17]: 2 (2: 1-5 mg/L)

NC1=NN=C(CCCCOCc2cc(Cl)cc(Cl)c2)CS1
MIC grade, A. FUMIGATUS 210, RPMI media [1]: 1 (1: ≥20 mg/L)
MIC grade, A. FUMIGATUS, RPMI media [2]: 2 (2: 5-20 mg/L)
MIC grade, A. TERREUS 49, RPMI media [3]: 2 (2: 5-20 mg/L)
MIC grade, C. KRUSEI, RPMI media [4]: 2 (2: 5-20 mg/L)
MIC grade, A. TERREUS, RPMI media [5]: 2 (2: 5-20 mg/L)
MIC grade, C. TROPICALIS, RPMI media [6]: 2 (2: 5-20 mg/L)
MIC grade, C. GLABRATA, RPMI media [7]: 2 (2: 5-20 mg/L)
MIC grade, A. FLAVUS, RPMI media [8]: 2 (2: 5-20 mg/L)
MIC grade, C. PARAPSILOSIS, RPMI media [9]: 3 (3: 1-5 mg/L)
MIC grade, A. NIGER, RPMI media [10]: 2 (2: 5-20 mg/L)
MIC grade, C. ALBICANS, RPMI media [11]: 2 (2: 5-20 mg/L)
MIC grade, A. FUMIGATUS 210, YAG media [12]: 2 (2: 1-5 mg/L)
MIC grade, A. TERREUS 49, YAG media [13]: 3 (3: 0.2-1 mg/L)
MIC grade, A. FUMIGATUS, YAG media [14]: 3 (3: 0.2-1 mg/L)
MIC grade, A. TERREUS, YAG media [15]: 3 (3: 0.2-1 mg/L)
MIC grade, A. NIGER, YAG media [16]: 3 (3: 0.2-1 mg/L)
MIC grade, A. FLAVUS, YAG media [17]: 4 (4: <0.2 mg/L)

Cc1ccc(C2=CSC(N)=NN2C)cc1 [4-methyl-5-(p-tolyl)-1,3,4-thiadiazin-2-amine]
MIC [6]: ≥ 20 µg/mL
MIC [9, 18]: ≥ 20 µg/mL
MIC [9, 19]: 1 to 5 µg/mL (≈ 4.56 to 22.8 µM)
MIC [11, 20]: < 1 µg/mL
MIC [11, 21]: 5 to 20 µg/mL (≈ 22.8 to 91.2 µM)
MIC [12]: < 0.2 µg/mL
MIC [13]: < 0.2 µg/mL
MIC [14]: < 0.2 µg/mL
MIC [15]: < 0.2 µg/mL
MIC [16]: 0.2 to 1 µg/mL (≈ 0.912 to 4.56 µM)
MIC [17]: 0.2 to 1 µg/mL (≈ 0.912 to 4.56 µM)

CN1N=C(N)SC=C1c1ccc(Cl)c(Cl)c1 [5-(3,4-dichlorophenyl)-4-methyl-1,3,4-thiadiazin-2-amine]
MIC [6]: ≥ 20 µg/mL
MIC [9, 18]: ≥ 20 µg/mL
MIC [9, 19]: ≥ 20 µg/mL
MIC [11, 20]: 5 to 20 µg/mL (≈ 18.2 to 72.9 µM)
MIC [11, 21]: ≥ 20 µg/mL
MIC [12]: 1 to 5 µg/mL (≈ 3.65 to 18.2 µM)
MIC [13]: 0.2 to 1 µg/mL (≈ 0.729 to 3.65 µM)
MIC [14]: 1 to 5 µg/mL (≈ 3.65 to 18.2 µM)
MIC [15]: 1 to 5 µg/mL (≈ 3.65 to 18.2 µM)
MIC [16]: 1 to 5 µg/mL (≈ 3.65 to 18.2 µM)
MIC [17]: ≥ 5 µg/mL

CCCCOc1ccc(C2=CSC(N)=NN2C)cc1 [5-(4-butoxyphenyl)-4-methyl-1,3,4-thiadiazin-2-amine]
MIC [6]: 1 to 5 µg/mL (≈ 3.6 to 18 µM)
MIC [9, 18]: < 1 µg/mL
MIC [9, 19]: 1 to 5 µg/mL (≈ 3.6 to 18 µM)
MIC [11, 20]: 1 to 5 µg/mL (≈ 3.6 to 18 µM)
MIC [11, 21]: ≥ 20 µg/mL
MIC [12]: < 0.2 µg/mL
MIC [13]: 0.2 to 1 µg/mL (≈ 0.721 to 3.6 µM)
MIC [14]: < 0.2 µg/mL
MIC [15]: 0.2 to 1 µg/mL (≈ 0.721 to 3.6 µM)
MIC [16]: < 0.2 µg/mL
MIC [17]: < 0.2 µg/mL
